Experimental findings from publication PMC12290954, “Synthesis, Characterization, Computational Evaluation, CO-Releasing Properties, and Molecular Docking Interactions of New [Mn(CO)3(bpy)L]PF6‑Type Molecules” (ACS Omega, 2025) are described below.

The test system of one series is CT-DNA. Nature of the series: DNA binding analysis, UV-vis, Benesi-Hildebrand method. Conditions: 25 μM DNA, 0-35 μM complex, Tris-HCl pH 7.4, 1 h room temperature, absorbance at 260 nm. The method, then:
DNA-binding properties of the molecules were analyzed with the Benesi–Hildebrand method with UV–vis spectroscopy. The stock solution of manganese complexes (3 mM) was prepared with DMSO, while a fresh stock solution of DNA from commercial CT-DNA was prepared in Tris-HCl buffer solution (pH = 7.4), and the ratio of A 260/A 280 of the DNA stock was recorded as 1.93. A certain concentration of DNA (25 μM) solution was incubated with different amounts of each complex (0, 5, 10, 15, 20, 25, 30, and 35 μM) for 1 h at room temperature. The absorption spectra of all solutions were recorded using a Shimadzu UV-1800 spectrophotometer between 240 and 500 nm.
In this study, the DNA-binding affinity of the molecules was also confirmed with a UV–vis spectrophotometer. […] While small fluctuations for 300 μM of each complex were recorded upon the addition of DNA solutions with different concentrations (0, 20, 40, 60, 80, 100, 120, and 140 μM) at 388 nm (Figures S6–S10), remarkable changes were detected at 260 nm, which is characteristic of DNA.
Here, A o is the absorbance of DNA in the absence of the manganese complex, A obs is the absorbance of DNA at 260 nm with different amounts of the molecules, [M] is the molar concentration of the molecules, and K b is the binding constant. […] These binding constants are moderately available for DNA-target drug candidates.

The next series concerns deoxymyoglobin. Nature of the series: Myoglobin assay, CO release under 365 nm UV light. The following applies: 365 nm lamp; for [MbCO] / Released-CO Equivalent / Half-life t 1/2 (50% of total CO release): 15 μM complex, pH 7.4; for [MbCO]: 60 μM myoglobin reduced with sodium dithionite; for Released-CO Equivalent / Half-life t 1/2 (50% of total CO release): 60 μM myoglobin; for Released-CO Percent: percent of the total CO. On the procedure: The myoglobin solution, which was prepared in PBS (pH 7.4, 0.1 M), was reduced to deoxymyoglobin using sodium dithionite (100 mM). The solutions of each complex ([…]) in DMSO were incubated with deoxymyoglobin solution ([…]), and the final solution was exposed to 365 nm UV light from a distance of 2 cm. Deoxymyoglobin has a band at 557 nm, while carbonmonoxy-myoglobin has two identical bands at 540 and 577 nm, and the changes at these wavelengths make the process observable and determinable. Thus, the CO-releasing properties of the molecules were calculated using the Lambert–Beer Law.
The commonly used method for determining the CO-releasing of a molecule is UV–visible spectroscopy. There are various ways for releasing CO from a molecule such as substitution, decomposition, and photoactivation. , Manganese carbonyl complexes are known as photoactivatable CO-releasing molecules (photoCORM). A photoCORM must be stable in the dark while it releases CO upon exposure to light of a certain wavelength. […] The basic principle of the myoglobin assay is based on the formation of carbon monoxymyoglobin with the interaction of deoxymyoglobin with CORMs by the spectrophotometric method. […] A 15 μM solution of the complexes was incubated with a 60 μM myoglobin solution reduced with sodium dithionite in a pH 7.4 buffered medium, and the change was followed by the spectroscopic method. The CO-releasing properties of a molecule could be evaluated from two perspectives: the first is how fast the molecule’s release is, and the second is how high the rate of the releasing is.

The next series addresses BSA (Bos taurus, UniProt P02769). Nature of the series: BSA binding analysis, UV-vis, Benesi-Hildebrand method. Conditions: 15 μM BSA, 0-14 μM complex, PBS pH 7.4, 20 min room temperature, band at 280 nm. Set-up: species or system bovine. The method, then: BSA binding analysis of the molecules was performed with UV–vis spectroscopy, and the records were evaluated using the Benesi-Hildebrand equation. The BSA stock solution was freshly prepared in phosphate-buffered saline (pH 7.4), while the stock solutions of the molecules were prepared in DMSO. A certain BSA solution (15 μM) was incubated with each molecule at different concentrations (0, 2, 4, 6, 8, 10, 12, and 14 μM) for 20 min at room temperature. The absorption spectra of all solutions were recorded between 250 and 350 nm.

Chain of BSA (P02769 25-607): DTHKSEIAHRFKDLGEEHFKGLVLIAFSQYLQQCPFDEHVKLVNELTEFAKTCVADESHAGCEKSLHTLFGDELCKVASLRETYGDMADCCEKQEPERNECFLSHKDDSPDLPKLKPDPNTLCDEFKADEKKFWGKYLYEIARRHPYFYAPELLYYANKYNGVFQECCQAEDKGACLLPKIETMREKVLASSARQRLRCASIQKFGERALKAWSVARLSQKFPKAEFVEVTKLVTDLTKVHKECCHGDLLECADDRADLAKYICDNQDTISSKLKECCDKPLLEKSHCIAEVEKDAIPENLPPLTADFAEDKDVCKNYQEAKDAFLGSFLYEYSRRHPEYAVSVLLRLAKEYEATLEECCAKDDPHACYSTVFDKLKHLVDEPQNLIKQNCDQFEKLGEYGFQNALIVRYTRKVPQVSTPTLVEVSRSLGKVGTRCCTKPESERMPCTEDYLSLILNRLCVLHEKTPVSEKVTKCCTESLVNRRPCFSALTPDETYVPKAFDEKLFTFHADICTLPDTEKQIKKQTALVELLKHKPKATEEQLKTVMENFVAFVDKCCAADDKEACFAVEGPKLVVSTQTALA

Turning to “[Mn(CO)3(bpy)(1-(2-vinyloxyethyl)benzimidazole)]PF6 [2e]”, the “DNA binding constant K b” value in the series on CT-DNA is on record as 2.7 × 10^4 M^–1. Besides, in the series on deoxymyoglobin, the “[MbCO]” value turned out to be 40.41 µM, the “Released-CO Equivalent” value was 2.69 and the “Released-CO Percent” value was 90%. Also, on BSA, the BSA binding constant is 3.9 × 10^4 M^–1.
With `C=CCn1c[n+]([Mn-2]2(=[C]=O)(=[C]=O)(=[C]=O)[n+]3ccccc3-c3cccc[n+]32)c2ccccc21.F[P-](F)(F)(F)(F)F` [2b, [Mn(CO)3(bpy)(1-allylbenzimidazole)]PF6], the “DNA binding constant K b” value in the series with CT-DNA is reported as 2.2 × 10^4 M^–1. In addition, in the series on deoxymyoglobin, the “[MbCO]” value amounted to 39.51 µM, the “Half-life t 1/2 (50% of total CO release)” value is on record as 4.85 min, the “Released-CO Equivalent” value was found to be 2.63 and the “Released-CO Percent” value came to 88%. Besides, the BSA binding constant at BSA is reported as 4.3 × 10^4 M^–1.
On to “[Mn(CO)3(bpy)(1-(2-metallyl)benzimidazole)]PF6 [2c]”, for which the “DNA binding constant K b” value with CT-DNA is 1.8 × 10^4 M^–1. In the series with deoxymyoglobin, the “[MbCO]” value worked out at 39.81 µM, the “Released-CO Equivalent” value was 2.65 and the “Released-CO Percent” value was 88%. Also, the BSA binding constant at BSA is given as 4.0 × 10^4 M^–1.
In the case of “[Mn(CO)3(bpy)(1-isopropylbenzimidazole)]PF6 [2a]”, the “DNA binding constant K b” value in the series with CT-DNA is given as 3.2 × 10^4 M^–1. For the same compound, in the series with deoxymyoglobin, the “[MbCO]” value stood at 34.64 µM, the “Half-life t 1/2 (50% of total CO release)” value is 4.02 min, the “Released-CO Equivalent” value came to 2.30 and the “Released-CO Percent” value is given as 77%. The BSA binding constant at BSA is 3.6 × 10^4 M^–1.
Consider “[Mn(CO)3(bpy)(1-(3,3-dimethylallyl)benzimidazole)]PF6 [2d]”, for which the “DNA binding constant K b” value with CT-DNA is listed as 2.4 × 10^4 M^–1. Moreover, in the series with deoxymyoglobin, the “[MbCO]” value was determined as 30.34 µM, the “Released-CO Equivalent” value worked out at 2.02 and the “Released-CO Percent” value was determined as 67%. Besides, the BSA binding constant on BSA was 8.2 × 10^4 M^–1.
